Source: US11000033B2, “Ketone or oxime compound, and herbicide” (NISSAN CHEMICAL CORPORATION, priority 2014, dated 2021)

What was measured:
Assay type in all cases: in vivo
[1] = tested on: Echinochloa crus-galli var. crus-galli; experiment: Test Example 3: herbicidal effect by foliage application, Wagner pot (symbol H); settings: application herbicide amount 320 g/ha
Method in brief: (§1)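 Rating at 3 weeks post-spray, by defined criteria. Treatment: emulsion diluted with water to a predetermined amount, applied evenly to foliage of 14-day-old plants raised in alluvial soil flooded 0.1–0.5 cm deep at 25–30 °C, rice co-sown.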

[2] = tested on: Leptochloa chinensis; experiment: Test Example 3: herbicidal effect by foliage application, Wagner pot (symbol D); settings: application herbicide amount 320 g/ha
Method in brief: as §1

[3] = tested on: Cyperus difformis; experiment: Test Example 3: herbicidal effect by foliage application, Wagner pot (symbol E); settings: application herbicide amount 320 g/ha
Method in brief: as §1

[4] = tested on: directly sowed rice plant; experiment: Test Example 3: effect on crop by foliage application, Wagner pot (symbol b); settings: application herbicide amount 320 g/ha
Method in brief: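 Alluvial soil in a 1/10000-are Wagner pot was flooded to a water depth of 0.1–0.5 cm. Echinochloa crus-galli var. crus-galli, Leptochloa chinensis, Cyperus difformis and rice were sown into it and grown in a greenhouse at 25–30 °C.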

[5] = tested on: Digitaria ciliaris; experiment: Test Example 4: herbicidal effect by soil treatment (symbol F); settings: application herbicide amount 320 g/ha
Text: (§2) Herbicidal Effect Test by Soil Treatment
(§3) Sterilized diluvial soil was placed in a plastic box having a length of 21 cm, a width of 13 cm, and a depth of 7 cm. Each of the seeds of Digitaria ciliaris, Setaria viridis, Echinochloa crus-galli var. crus-galli, Avena fatua, Alopecurus myosuroides, Lolium multiflorum Lam., Apera spica-venti, Abutilon theophrasti, Amaranthus retroflexus, Chenopodium album, Stellaria media, Galium spurium, Veronica persica, corn, soybean, rice, wheat, beet, and rapeseed was sowed in a spot-like manner and was covered with the soil of a thickness of about 1.5 cm. Subsequently, the emulsion agent of the compound present invention prepared in accordance with Formulation Example 2 was diluted with water so as to be a predetermined herbicide amount and the diluted emulsion agent was uniformly applied to the surface of the soil with a small-size spray. The plastic box was placed in a greenhouse of 25° C. to 30° C. to grow plant. 3 weeks later from the herbicide application, the effect to each plant was investigated in accordance with the criteria of Test Example 1.

[6] = tested on: Setaria viridis; experiment: Test Example 4: herbicidal effect by soil treatment (symbol G); settings: application herbicide amount 320 g/ha
Text: as §2, §3

[7] = tested on: Echinochloa crus-galli var. crus-galli; experiment: Test Example 4: herbicidal effect by soil treatment (symbol H); settings: application herbicide amount 320 g/ha
Text: as §2, §3

[8] = tested on: Avena fatua; experiment: Test Example 4: herbicidal effect by soil treatment (symbol I); settings: application herbicide amount 320 g/ha
Text: as §2, §3

[9] = tested on: Alopecurus myosuroides; experiment: Test Example 4: herbicidal effect by soil treatment (symbol J); settings: application herbicide amount 320 g/ha
Text: as §2, §3

[10] = tested on: Lolium multiflorum Lam.; experiment: Test Example 4: herbicidal effect by soil treatment (symbol K); settings: application herbicide amount 320 g/ha
Text: as §2, §3

[11] = tested on: Apera spica-venti; experiment: Test Example 4: herbicidal effect by soil treatment (symbol L); settings: application herbicide amount 320 g/ha
Text: as §2, §3

[12] = tested on: Abutilon theophrasti; experiment: Test Example 4: herbicidal effect by soil treatment (symbol M); settings: application herbicide amount 320 g/ha
Text: as §2, §3

[13] = tested on: Amaranthus retroflexus; experiment: Test Example 4: herbicidal effect by soil treatment (symbol N); settings: application herbicide amount 320 g/ha
Text: as §2, §3

[14] = tested on: Stellaria media; experiment: Test Example 4: herbicidal effect by soil treatment (symbol P); settings: application herbicide amount 320 g/ha
Text: as §2, §3

[15] = tested on: Veronica persica; experiment: Test Example 4: herbicidal effect by soil treatment (symbol R); settings: application herbicide amount 320 g/ha
Text: as §2, §3

[16] = tested on: corn; experiment: Test Example 4: effect on crop by soil treatment (symbol c); settings: application herbicide amount 320 g/ha
Text: as §2
(§4) Sterilized diluvial soil was placed in a plastic box having a length of 21 cm, a width of 13 cm, and a depth of 7 cm. Each of the seeds of Digitaria ciliaris, Setaria viridis, Echinochloa crus-galli var. crus-galli, Avena fatua, Alopecurus myosuroides, Lolium multiflorum Lam., Apera spica-venti, Abutilon theophrasti, Amaranthus retroflexus, Chenopodium album, Stellaria media, Galium spurium, Veronica persica, corn, soybean, rice, wheat, beet, and rapeseed was sowed in a spot-like manner and was covered with the soil of a thickness of about 1.5 cm. […] The plastic box was placed in a greenhouse of 25° C. to 30° C. to grow plant.

[17] = tested on: soybean; experiment: Test Example 4: effect on crop by soil treatment (symbol d); settings: application herbicide amount 320 g/ha
Text: as §2, §4

[18] = tested on: rice; experiment: Test Example 4: effect on crop by soil treatment (symbol b); settings: application herbicide amount 320 g/ha
Text: as §2, §4

[19] = tested on: wheat; experiment: Test Example 4: effect on crop by soil treatment (symbol e); settings: application herbicide amount 320 g/ha
Text: as §2, §4

[20] = tested on: beet; experiment: Test Example 4: effect on crop by soil treatment (symbol f); settings: application herbicide amount 320 g/ha
Text: as §2, §4

[21] = tested on: rapeseed; experiment: Test Example 4: effect on crop by soil treatment (symbol g); settings: application herbicide amount 320 g/ha
Text: as §2, §4

[22] = tested on: Digitaria ciliaris; experiment: Test Example 5: herbicidal effect by foliage application, plastic box (symbol F); settings: 320 g/ha, 3 weeks after application
Method in brief: (§5)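 Seeds were sown in sterilized diluvial soil, covered with about 1.5 cm of soil and grown 14 days in a greenhouse at 25° C. to 30° C. An emulsifiable formulation diluted in water to a set rate was sprayed over foliage, and injury was scored 3 weeks later.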

[23] = tested on: Setaria viridis; experiment: Test Example 5: herbicidal effect by foliage application, plastic box (symbol G); settings: 320 g/ha, 3 weeks after application
Method in brief: as §5

[24] = tested on: Echinochloa crus-galli var. crus-galli; experiment: Test Example 5: herbicidal effect by foliage application, plastic box (symbol H); settings: 320 g/ha, 3 weeks after application
Method in brief: as §5

[25] = tested on: Avena fatua; experiment: Test Example 5: herbicidal effect by foliage application, plastic box (symbol I); settings: 320 g/ha, 3 weeks after application
Method in brief: as §5

[26] = tested on: Alopecurus myosuroides; experiment: Test Example 5: herbicidal effect by foliage application, plastic box (symbol J); settings: 320 g/ha, 3 weeks after application
Method in brief: as §5

[27] = tested on: Lolium multiflorum Lam.; experiment: Test Example 5: herbicidal effect by foliage application, plastic box (symbol K); settings: 320 g/ha, 3 weeks after application
Method in brief: as §5

[28] = tested on: Apera spica-venti; experiment: Test Example 5: herbicidal effect by foliage application, plastic box (symbol L); settings: 320 g/ha, 3 weeks after application
Method in brief: as §5

[29] = tested on: Abutilon theophrasti; experiment: Test Example 5: herbicidal effect by foliage application, plastic box (symbol M); settings: 320 g/ha, 3 weeks after application
Method in brief: as §5

[30] = tested on: Amaranthus retroflexus; experiment: Test Example 5: herbicidal effect by foliage application, plastic box (symbol N); settings: 320 g/ha, 3 weeks after application
Method in brief: as §5

[31] = tested on: Stellaria media; experiment: Test Example 5: herbicidal effect by foliage application, plastic box (symbol P); settings: 320 g/ha, 3 weeks after application
Method in brief: as §5

[32] = tested on: Galium spurium; experiment: Test Example 5: herbicidal effect by foliage application, plastic box (symbol Q); settings: 320 g/ha, 3 weeks after application
Method in brief: as §5

[33] = tested on: Veronica persica; experiment: Test Example 5: herbicidal effect by foliage application, plastic box (symbol R); settings: 320 g/ha, 3 weeks after application
Method in brief: as §5

[34] = tested on: corn; experiment: Test Example 5: effect on crop by foliage application, plastic box (symbol c); settings: 320 g/ha, 3 weeks after application
Method in brief: (§6)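 Diluvial soil, sterilized and boxed (21 × 13 × 7 cm), received spot-sown seed covered by about 1.5 cm soil; plants were then greenhouse-grown at 25–30° C.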

[35] = tested on: soybean; experiment: Test Example 5: effect on crop by foliage application, plastic box (symbol d); settings: 320 g/ha, 3 weeks after application
Method in brief: as §6

[36] = tested on: rice plant; experiment: Test Example 5: effect on crop by foliage application, plastic box (symbol b); settings: 320 g/ha, 3 weeks after application
Method in brief: as §6

[37] = tested on: wheat; experiment: Test Example 5: effect on crop by foliage application, plastic box (symbol e); settings: 320 g/ha, 3 weeks after application
Method in brief: as §6

[38] = tested on: beet; experiment: Test Example 5: effect on crop by foliage application, plastic box (symbol f); settings: 320 g/ha, 3 weeks after application
Method in brief: as §6

[39] = tested on: rapeseed; experiment: Test Example 5: effect on crop by foliage application, plastic box (symbol g); settings: 320 g/ha, 3 weeks after application
Method in brief: as §6

## CCOC(=O)C(C(=O)C1CCCC1)C1CC(O)=C(c2c(C)cc(C)cc2C)C1=O (stereo not drawn) [2-027]
[1]
  herbicidal effect on H (Echinochloa crus-galli var. crus-galli), grade 0-5: 3 (Herbicidal ratio of 40% or higher and lower than 70%)
[2]
  herbicidal effect on D (Leptochloa chinensis), grade 0-5: 0 (Herbicidal ratio of 5% or lower (almost no effect))
[3]
  herbicidal effect on E, grade 0-5: 0 (Herbicidal ratio of 5% or lower (almost no effect))
[4]
  effect on crop b (directly sowed rice plant), grade 0-5: 5 (Herbicidal ratio of 90% or more (almost completely withered))
[5]
  F: Digitaria ciliaris, herbicidal effect grade: 3 (Herbicidal ratio of 40% or higher and lower than 70%)
[6]
  G: Setaria viridis, herbicidal effect grade: 5 (Herbicidal ratio of 90% or more (almost completely withered))
[7]
  H: Echinochloa crus-galli var. crus-galli, herbicidal effect grade: 3 (Herbicidal ratio of 40% or higher and lower than 70%)
[8]
  I: Avena fatua, herbicidal effect grade: 0 (Herbicidal ratio of 5% or lower (almost no effect))
[9]
  J: Alopecurus myosuroides, herbicidal effect grade: 1 (Herbicidal ratio of 5% or higher and lower than 20%)
[10]
  K: Lolium multiflorum Lam., herbicidal effect grade: 2 (Herbicidal ratio of 20% or higher and lower than 40%)
[11]
  L: Apera spica-venti, herbicidal effect grade: 0 (Herbicidal ratio of 5% or lower (almost no effect))
[12]
  M: Abutilon theophrasti, herbicidal effect grade: 0 (Herbicidal ratio of 5% or lower (almost no effect))
[13]
  N: Amaranthus retroflexus, herbicidal effect grade: 0 (Herbicidal ratio of 5% or lower (almost no effect))
[14]
  P: Stellaria media, herbicidal effect grade: 0 (Herbicidal ratio of 5% or lower (almost no effect))
[15]
  R: Veronica persica, herbicidal effect grade: 0 (Herbicidal ratio of 5% or lower (almost no effect))
[16]
  c: corn, effect on crop grade: 1 (Herbicidal ratio of 5% or higher and lower than 20%)
[17]
  d: soybean, effect on crop grade: 0 (Herbicidal ratio of 5% or lower (almost no effect))
[18]
  b: directly sowed rice plant, effect on crop grade: 4 (Herbicidal ratio of 70% or higher and lower than 90%)
[19]
  e: wheat, effect on crop grade: 0 (Herbicidal ratio of 5% or lower (almost no effect))
[20]
  f: beet, effect on crop grade: 0 (Herbicidal ratio of 5% or lower (almost no effect))
[21]
  g: rapeseed, effect on crop grade: 0 (Herbicidal ratio of 5% or lower (almost no effect))
[22]
  F: Digitaria ciliaris, herbicidal effect grade: 0 (Herbicidal ratio of 5% or lower (almost no effect))
[23]
  G: Setaria viridis, herbicidal effect grade: 5 (Herbicidal ratio of 90% or more (almost completely withered))
[24]
  H: Echinochloa crus-galli var. crus-galli, herbicidal effect grade: 3 (Herbicidal ratio of 40% or higher and lower than 70%)
[25]
  I: Avena fatua, herbicidal effect grade: 1 (Herbicidal ratio of 5% or higher and lower than 20%)
[26]
  J: Alopecurus myosuroides, herbicidal effect grade: 2 (Herbicidal ratio of 20% or higher and lower than 40%)
[27]
  K: Lolium multiflorum Lam., herbicidal effect grade: 4 (Herbicidal ratio of 70% or higher and lower than 90%)
[28]
  L: Apera spica-venti, herbicidal effect grade: 0 (Herbicidal ratio of 5% or lower (almost no effect))
[29]
  M: Abutilon theophrasti, herbicidal effect grade: 0 (Herbicidal ratio of 5% or lower (almost no effect))
[30]
  N: Amaranthus retroflexus, herbicidal effect grade: 0 (Herbicidal ratio of 5% or lower (almost no effect))
[31]
  P: Stellaria media, herbicidal effect grade: 0 (Herbicidal ratio of 5% or lower (almost no effect))
[32]
  Q: Galium spurium, herbicidal effect grade: 0 (Herbicidal ratio of 5% or lower (almost no effect))
[33]
  R: Veronica persica, herbicidal effect grade: 0 (Herbicidal ratio of 5% or lower (almost no effect))
[34]
  c: corn, effect on crop grade: 1 (Herbicidal ratio of 5% or higher and lower than 20%)
[35]
  d: soybean, effect on crop grade: 0 (Herbicidal ratio of 5% or lower (almost no effect))
[36]
  b: directly sowed rice plant, effect on crop grade: 4 (Herbicidal ratio of 70% or higher and lower than 90%)
[37]
  e: wheat, effect on crop grade: 0 (Herbicidal ratio of 5% or lower (almost no effect))
[38]
  f: beet, effect on crop grade: 0 (Herbicidal ratio of 5% or lower (almost no effect))
[39]
  g: rapeseed, effect on crop grade: 1 (Herbicidal ratio of 5% or higher and lower than 20%)
